Test results taken from patent US11203739B2, “Modulating cell proliferation and pluripotency” (Memorial Sloan Kettering Cancer Center, priority 2014, dated 2021).
Entries after “also recorded” stand apart in the source; their conditions may differ.

Key:
Type in all cases: cell-based, mouse
[1] = system: ESC-1 cells; experiment: Colony formation (self-renewal) assay with alkaline phosphatase staining; details: S/L medium, 4 mM, four days; for number of undifferentiated colonies: compared to S/L and the other treatment
Method: Self-renewal assays. ES cells free of feeder MEFs were plated at 100 cells per well in 6-well plates coated with 20 μg/mL mouse laminin (Stemgent 06-0002) in maintenance S/L medium. The following day media was changed to S/L experimental medium containing dimethyl-α-ketoglutarate (4 mM, Sigma 349631), dimethyl-succinate (4 mM, Sigma W239607) or DMSO vehicle control. Four days later cells were washed with PBS and stained for alkaline phosphatase using Vector Red Alkaline Phosphatase Kit (Vector Labs) according to manufacturer's instructions.

[2] = system: ESC-1 cells; experiment: qRT-PCR gene expression of ICM and germline-associated genes; details: for expression of ICM and germline-associated genes: ESC-1 cells, three days
Method: qRT-PCR. RNA was isolated using the RNeasy kit (Qiagen). After DNase treatment, 1-2 μg RNA was used for cDNA synthesis using the First-Strand Synthesis kit (Invitrogen). Quantitative RT-PCR analysis was performed in biological triplicate using an ABI Prism 7000 (Applied Biosystems) with Platinum SYBR green.

[3] = system: ESC-V19 cells; experiment: Growth curves in glutamine-free medium; details: glutamine-free S/L or 2i/L media, 4 mM DM-αKG
Method: (§1) Cell culture. Maintenance media for ES cells were as follows: serum/LIF (S/L) maintenance medium contained Knockout DMEM (Gibco) supplemented with 15% ESC-qualified FBS (Gemini), penicillin/streptomycin (Life Technologies), 0.1 mM 2-mercaptoethanol, L-glutamine (2 mM, Life Technologies) and leukemia inhibitory factor (LIF) plated onto irradiated feeder mouse embryonic fibroblasts (MEFs); 2i/LIF maintenance conditions used a base medium made from a 1:1 mix of DMEM/F12 (Life Technologies 11302-033) and Neurobasal (Life Technologies 21103-049) containing N2 and B27 supplements (Life Technologies 17502-048 and 17504-044, 1:100 dilutions), penicillin/streptromycin, 0.1 mM 2-mercaptoethanol, L-glutamine (2 mM), LIF, CHIR99021 at 3 μM (Stemgent) and PD0325901 at 1 μM (Stemgent). Experimental media utilized for all experiments (except growth curves with and without glucose, ^13C isotope tracing experiments and ^14C labeling experiments) contained 1:1 mix of glutamine-free DMEM (Life Technologies 11960-051) and Neurobasal (Life Technologies 21103-049) with or without 2 mM glutamine. With the exception of 15% dialyzed FBS (Gemini 100-108) in S/L experimental medium, all other supplements were equivalent to maintenance media (S/L or 2i/L). […]
Growth curves. […] Cells were counted each day using a Beckman Coulter Multisizer 4.

[4] = system: Nanog-GFP ESCs; experiment: Nanog-GFP reporter FACS; details: S/L medium, three days
Method: FACS. Nanog-GFP ESCs^8 were cultured in S/L experimental medium for three passages and 2.5×10^4 cells were plated into a 6-well plate. Twenty-four hours later media was changed to S/L medium containing vehicle control or DM-AKG. Media was subsequently changed 48 hours later and cells harvested the following day. FACS analysis was performed at The Rockefeller University Flow Cytometry Resource Center using a BD LSR II. Data was generated using FlowJo. Analysis was performed on biological triplicates.

[5] = system: ESC-1 cells; experiment: DNA methylation quantification (% 5mC); details: S/L medium, 24 hours
Method: DNA methylation. Genomic DNA was extracted from ESC samples using Puregene Core Kit A (Sigma). DNA methylation was measured using the colorimetric MethylFlash Methylated DNA quantification kit (Epigentek) according to manufacturer instructions.

[6] = system: ESC-1 cells; experiment: Western blot of histone methylation in glutamine-free media with DM-αKG supplementation; details: glutamine-free S/L or 2i/L media, 24 hours
Method: as §1

[7] = system: UTX/Jmjd3; experiment: H3K27me3 ChIP-PCR at bivalent domain promoters; details: 30 μM, five hours
Method: Chromatin immunoprecipitation. Native ChIP assays (histones) were performed with approximately 6×10^6 ESCs per experiment. Cells were subject to hypotonic lysis and treated with micrococcal nuclease to recover mono- to tri-nucleosomes. Nuclei were lysed by brief sonication and dialyzed into N-ChIP buffer (10 mM Tris pH 7.6, 1 mM EDTA, 0.1% SDS, 0.1% Na-Deoxycholate, 1% Triton X-100) for 2 hr at 4° C. Soluble material was incubated overnight at 4° C. following addition of 3-5 μg of antibody bound to 75 μL protein A Dynal magnetic beads (Invitrogen), with 5% kept as input DNA. Magnetic beads were washed, chromatin was eluted, and ChIP DNA was dissolved in 10 mM Tris pH 8 for quantitative PCR reactions (see below).
ChIP-qPCR. Primers are listed below. All qPCR was performed using an Applied Biosystems StepOnePlus system and Power SYBR Green PCR master mix. ChIP samples were diluted 1:100 in H2O and 5 μL used per reaction. ChIP-qPCR signals were calculated as percent input.

[8] = system: UTX and Jmjd3; experiment: Western blot of H3K27 methylation after GSK-J4 treatment; details: ESC-1 cells in S/L, increasing amounts of GSK-J4, 24 hours
Method: as §1

[9] = system: ESC-1 cells; experiment: GC-MS metabolite profiling, αKG:succinate ratio; details: 1 μM or 5 μM, 3 hours; for αKG:succinate ratio: S/L or 2i/L medium
Method: Metabolite profiling. For all metabolite experiments, cells were seeded in their standard culture medium in 6-well plates and the next day were changed into experimental medium. Medium was changed again at the indicated time before harvest (usually 1-24 hours). Metabolites were extracted with 1 mL ice-cold 80% methanol supplemented with 20 μM deuterated 2-hydroxyglutarate (D-2-hydroxyglutaric-2,3,3,4,4-d5 acid, d5-2HG) as an internal standard. After overnight incubation at −80° C., lysates were harvested and centrifuged at 21,000 g for 20 minutes to remove protein. Extracts were dried in an evaporator (Genevac EZ-2 Elite) and resuspended by incubation at 30° C. for 2 hours in 50 μL of 40 mg/mL methoxyamine hydrochloride in pyridine. Metabolites were further derivatized by addition of 80 μL of MSTFA +1% TCMS (Thermo Scientific) and 70 μl ethyl acetate (Sigma) and incubated at 37° C. for 30 minutes. Samples were analyzed using an Agilent 7890A GC coupled to Agilent 5975C mass selective detector. […] Peaks representing compounds of interest were extracted and integrated using MassHunter software (Agilent Technologies) and then normalized to both the internal standard (d5-2HG) peak area and protein content of duplicate samples as determined by BCA protein assay (Thermo Scientific). Ions used for quantification of metabolite levels are as follows: d5-2HG m/z 354; KG, m/z 304; aspartate, m/z 334; citrate, m/z 465; glutamate, m/z 363; malate, m/z 335 and succinate, m/z 247. […] Enrichment of ^13C was assessed by quantifying the abundance of the following ions: αKG, m/z 304-315; aspartate, m/z 334-346; citrate, m/z 465-482; glutamate, m/z 363-377 and malate, m/z 335-347. […] Flux was calculated as the product of the first order rate constant of the kinetic labeling curve and relative metabolite pool size (normalized to mean S/L values for each experiment)^5. The flux from glucose- and glutamine-derived carbons was calculated for each of three independent experiments and the average total flux for each metabolite was shown.

COC(=O)CCC(=O)OC [DM-succinate, dimethyl-succinate]
predominant colony types [1]: either mixed or differentiated
number of undifferentiated colonies [1]: reproducible trend of fewer undifferentiated and more differentiated colonies
expression of ICM and germline-associated genes [2]: not

COC(=O)CCC(=O)C(=O)OC [DM-αKG, dimethyl-α-ketoglutarate]
glutamine-independent proliferation [3]: sufficient to enable glutamine-independent proliferation in both S/L and 2i/L conditions
Nanog expression detected by GFP fluorescence [4]: sufficient to enhance Nanog expression in a dose-dependent manner
total DNA methylation (% 5mC) [5]: reduced
H3K27me3 and H4K20me3 levels (Western blot) [6]: reversed the increase in H3K27me3 and H4K20me3
colony staining and morphology (brightfield images) [1]: stained brighter and retained a more compact colony morphology
number of undifferentiated colonies [1]: more than double the number of fully undifferentiated colonies; also recorded: more undifferentiated colonies than vehicle or DM-succinate treated wells
effects on gene expression in Tet1/Tet2 double knockout ES cells ([2]; 72 hours): largely abrogated in Tet1/Tet2 double knockout ES cells
expression of ICM and germline-associated genes [2]: induced expression of ICM and germline-associated genes
effects on gene expression upon extended passaging ([2]; S/L medium, 24 hours or four passages): persisted upon extended passaging

CCOC(=O)CCNc1cc(N2CCc3ccccc3CC2)nc(-c2ccccn2)n1 [GSK-J4]
H3K27me3 at bivalent domain promoters ([7]; ESC-1 cells in 2i/L medium): consistent increase in H3K27me3 at bivalent domain promoters
H3K27me3 at bivalent domain promoters ([7]; ESC-1 cells in S/L medium): did not change
H3K27me1 level (Western blot) [8]: concomitant reduction of H3K27me1
H3K27me3 level (Western blot) [8]: dose-dependent increase in H3K27me3
absolute and relative increase in the αKG:succinate ratio, 2i/L compared with S/L [9]: more pronounced in the cells grown in 2i/L medium
αKG:succinate ratio [9]: triggered increases in the αKG:succinate ratio

CCOC(=O)CCNc1cc(N2CCc3ccccc3CC2)nc(-c2cccnc2)n1 [GSK-J5]
αKG:succinate ratio [9]: had no effect
